The values below come from patent US20180110777A1, “METHOD FOR REGULATION OF TELOMERE LENGTH” (The Johns Hopkins University, priority 2015, published 2018).

The test system of experiment [1] is ATR kinase substrate Chk1. The experiment in a line: Western blot of ATR kinase substrate Chk1 phosphorylation. Format: cell-based, mouse. To be noted: cells pretreated, then exposed to camptothecin (CPT). From the text:
To probe the role of ATM, the ADDIT assay was used in cells treated with the ATM specific inhibitor KU55933 (as described in Hickson et al., 2004, Cancer Research 64, 9152-9159) or with siRNA to ATM. To confirm the inhibition of ATM, the phosphorylation level was examined of the ATM substrate Kap1 and, as a control, an ATR kinase substrate Chk1 by western blot. Cultured cells were pretreated with KU55933, siA™ or DMSO control and then exposed to camptothecin (CPT), a DNA damaging agent.
To detect phospho-proteins, 1× lysis buffer made of final concentration of 1×RIPA™ (Cell Signaling, #98016S), 1× protease inhibitor cocktail, 1× PhosSTOP™ (Roche, 4906845001) was added directly to cells on the dish after washing with PBS. Protein concentration was measured with a BCA protein assay kit (Thermo, #23227). Typically 10 μg of protein from each sample was applied to SDS-PAGE gels (Biorad, #456-1084) and transferred to nitrocellulose membranes in transfer buffer. […] Band intensities were quantified using the Odyssey™ software (LI-COR) and normalized to Actin levels. […]
In general terms: In western blotting, separated proteins are transferred to a membrane and probed.

The subject of the next experiment is HT1080 cells. The experiment in a line: Bulk telomere length, Southern blot, HT1080. Format: cell-based, human.
In the next experiment the test system is SL13 cells. The experiment in a line: Telomere Southern blot after lentiviral overexpression of mTR and mTERT. Format: cell-based, mouse. Conditions: SL13 cells transduced with lentivirus expressing mTR and mTERT; day 6.
The next experiment concerns human HCT116. The experiment in a line: Bulk telomere length, Southern blot, HCT116. Format: cell-based. To be noted: HCT116 cells.
For another experiment, the system named is PARP1-4. To be noted: in vitro assays; cited from earlier work.

Turning to `O=c1cc(-c2cccc3c2Sc2ccccc2S3)oc(N2CCOCC2)c1` [KU55933], the Chk1-S345 phosphorylation entry in experiment [1] is on record as “not Chk1 phosphorylation”. Besides, the bulk telomere length entry in the experiment on HT1080 cells was “shortens bulk telomeres”; with human HCT116 it was “telomere shortening”. The “telomere elongation on overexpression of telomerase (Southern blot)” value with SL13 cells is given as “blocked this telomere elongation”.
Take `O=C(c1cc(Cc2n[nH]c(=O)c3ccccc23)ccc1F)N1CCN(C(=O)C2CC2)CC1` [Olaparib]: in the experiment with PARP1-4, the “specificity to PARP1-4” value is “highly specific to PARP1-4”.
